Tests used:
MDCK cells = experiment: Impairment in colony formation capability; assay type: cell-based, canine; conditions: phosphoric acid buffer (FIG. 7)
HEp-2 cells [1] = experiment: Impairment in colony formation capability; assay type: cell-based, human; conditions: phosphoric acid buffer (FIG. 7)
feline caliciviruses = experiment: Sterilizing solution wrung from wet wipe, feline caliciviruses (Example 11)
[2] = tested on: feline calicivirus F4 strain; experiment: Inactivation of feline caliciviruses (Example 10), plaque assay on CRFK cells; assay type: cell-based; conditions: 30 minutes at 25° C. (FIG. 10)
HEp-2 cells [3] = conditions: human, 20 min
[4] = tested on: Herpes simplex virus type I VR-539; experiment: Inactivation of herpesviruses, plaque assay on Vero cells; assay type: cell-based
[5] = tested on: feline calicivirus F4 strain; experiment: In vitro test in test tube, feline caliciviruses (Example 11); assay type: cell-based; conditions: pH 5.5

OCl [Sodium hypochlorite aqueous solution, sodium hypochlorite]
concentration at which impairment in colony formation was observed (MDCK cells): ≤ 5 ppm
concentration at which impairment in colony formation was observed (HEp-2 cells [1]): ≤ 5 ppm
number of infectious viruses (feline caliciviruses; solution from wet wipe, 500 ppm (formulation 60 times), contact 1 min): 3.5 ± 2.1 CPU/mL
number of infectious viruses (feline caliciviruses; solution from wet wipe, 500 ppm (formulation 60 times), contact 5 min): 2.9 ± 2.7 CPU/mL
number of infectious viruses (feline caliciviruses; solution from wet wipe, 500 ppm (formulation 60 times), contact 10 min): <100 CPU/mL
number of infectious viruses (feline caliciviruses; solution from wet wipe, 750 ppm (formulation 40 times), contact 1 min): <100 CPU/mL
number of infectious viruses (feline caliciviruses; solution from wet wipe, 750 ppm (formulation 40 times), contact 5 min): <100 CPU/mL
number of infectious viruses (feline caliciviruses; solution from wet wipe, 750 ppm (formulation 40 times), contact 10 min): <100 CPU/mL
number of infectious viruses (feline caliciviruses; solution from wet wipe, 1000 ppm (formulation 30 times), contact 1 min): <100 CPU/mL
number of infectious viruses (feline caliciviruses; solution from wet wipe, 1000 ppm (formulation 30 times), contact 5 min): <100 CPU/mL
number of infectious viruses (feline caliciviruses; solution from wet wipe, 1000 ppm (formulation 30 times), contact 10 min): <100 CPU/mL
number of infectious viruses (feline caliciviruses; solution from wet wipe, 3000 ppm (formulation 10 times), contact 1 min): <100 CPU/mL
number of infectious viruses (feline caliciviruses; solution from wet wipe, 3000 ppm (formulation 10 times), contact 5 min): <100 CPU/mL
number of infectious viruses (feline caliciviruses; solution from wet wipe, 3000 ppm (formulation 10 times), contact 10 min): <100 CPU/mL
number of infectious viruses (feline caliciviruses; wet wipe stored Day 0, 1000 ppm, contact 1 min): <100
number of infectious viruses (feline caliciviruses; wet wipe stored Day 0, 1000 ppm, contact 5 min): <100
number of infectious viruses (feline caliciviruses; wet wipe stored Day 0, 1000 ppm, contact 10 min): <100
number of infectious viruses (feline caliciviruses; wet wipe stored Day 0, 3000 ppm, contact 1 min): <100
number of infectious viruses (feline caliciviruses; wet wipe stored Day 0, 3000 ppm, contact 5 min): <100
number of infectious viruses (feline caliciviruses; wet wipe stored Day 0, 3000 ppm, contact 10 min): <100
number of infectious viruses (feline caliciviruses; wet wipe stored Day 3, 1000 ppm, contact 1 min): Many
number of infectious viruses (feline caliciviruses; wet wipe stored Day 3, 1000 ppm, contact 5 min): Many
number of infectious viruses (feline caliciviruses; wet wipe stored Day 3, 1000 ppm, contact 10 min): Many
number of infectious viruses (feline caliciviruses; wet wipe stored Day 3, 3000 ppm, contact 1 min): Many
number of infectious viruses (feline caliciviruses; wet wipe stored Day 3, 3000 ppm, contact 5 min): Many
number of infectious viruses (feline caliciviruses; wet wipe stored Day 3, 3000 ppm, contact 10 min): Many
effect of pH on inactivation of feline caliciviruses ([2]; pH 4.5 and pH 7.5): greatly affected by pH
feline caliciviruses inactivation capability ([2]; pH of 4.5): lost
concentration that generated dead cells (HEp-2 cells [3]): about 0.5 ppm
sterilizing effect on herpesvirus type I ([4]; acidic conditions of pH 5.5 or lower): diminished
Number of Residual Viruses in Test Solution/Number of Residual Viruses only with Buffer × 100 (%) ([4]; pH 4.5, 10 ppm): 80%
Number of Residual Viruses in Test Solution/Number of Residual Viruses only with Buffer × 100 (%) ([4]; pH 4.5, 50 ppm): 67.4%
Number of Residual Viruses in Test Solution/Number of Residual Viruses only with Buffer × 100 (%) ([4]; pH 4.5, 100 ppm): 63.1%
Number of Residual Viruses in Test Solution/Number of Residual Viruses only with Buffer × 100 (%) ([4]; pH 4.5, 150 ppm): 23.3%
Number of Residual Viruses in Test Solution/Number of Residual Viruses only with Buffer × 100 (%) ([4]; pH 4.5, 200 ppm): 35.2%
Number of Residual Viruses in Test Solution/Number of Residual Viruses only with Buffer × 100 (%) ([4]; pH 5.5, 10 ppm): 14.3%
Number of Residual Viruses in Test Solution/Number of Residual Viruses only with Buffer × 100 (%) ([4]; pH 5.5, 50 ppm): 90.9%
Number of Residual Viruses in Test Solution/Number of Residual Viruses only with Buffer × 100 (%) ([4]; pH 5.5, 100 ppm): 96.4%
Number of Residual Viruses in Test Solution/Number of Residual Viruses only with Buffer × 100 (%) ([4]; pH 5.5, 150 ppm): <0.2%
Number of Residual Viruses in Test Solution/Number of Residual Viruses only with Buffer × 100 (%) ([4]; pH 5.5, 150 ppm, listed as sodium hypochlorite aqueous solution): below the detectable limit
Number of Residual Viruses in Test Solution/Number of Residual Viruses only with Buffer × 100 (%) ([4]; pH 5.5, 200 ppm): <0.5%
Number of Residual Viruses in Test Solution/Number of Residual Viruses only with Buffer × 100 (%) ([4]; pH 5.5, 200 ppm, listed as sodium hypochlorite aqueous solution): below the detectable limit
Number of Residual Viruses in Test Solution/Number of Residual Viruses only with Buffer × 100 (%) ([4]; pH 6.5, 10 ppm): <6%
Number of Residual Viruses in Test Solution/Number of Residual Viruses only with Buffer × 100 (%) ([4]; pH 6.5, 50 ppm): <0.3%
Number of Residual Viruses in Test Solution/Number of Residual Viruses only with Buffer × 100 (%) ([4]; pH 6.5, 100 ppm): <0.3%
Number of Residual Viruses in Test Solution/Number of Residual Viruses only with Buffer × 100 (%) ([4]; pH 6.5, 150 ppm): <0.2%
Number of Residual Viruses in Test Solution/Number of Residual Viruses only with Buffer × 100 (%) ([4]; pH 6.5, 200 ppm): <0.6%
Number of Residual Viruses in Test Solution/Number of Residual Viruses only with Buffer × 100 (%) ([4]; pH 7.5, 10 ppm): 20%
Number of Residual Viruses in Test Solution/Number of Residual Viruses only with Buffer × 100 (%) ([4]; pH 7.5, 50 ppm): <0.3%
Number of Residual Viruses in Test Solution/Number of Residual Viruses only with Buffer × 100 (%) ([4]; pH 7.5, 100 ppm): <0.3%
Number of Residual Viruses in Test Solution/Number of Residual Viruses only with Buffer × 100 (%) ([4]; pH 7.5, 150 ppm): <0.2%
Number of Residual Viruses in Test Solution/Number of Residual Viruses only with Buffer × 100 (%) ([4]; pH 7.5, 200 ppm): <0.4%
Number of Residual Viruses in Test Solution/Number of Residual Viruses only with Buffer × 100 (%) ([4]; pH 8.5, 10 ppm): 36%
Number of Residual Viruses in Test Solution/Number of Residual Viruses only with Buffer × 100 (%) ([4]; pH 8.5, 50 ppm): <0.3%
Number of Residual Viruses in Test Solution/Number of Residual Viruses only with Buffer × 100 (%) ([4]; pH 8.5, 100 ppm): <0.3%
Number of Residual Viruses in Test Solution/Number of Residual Viruses only with Buffer × 100 (%) ([4]; pH 8.5, 150 ppm): <0.2%
Number of Residual Viruses in Test Solution/Number of Residual Viruses only with Buffer × 100 (%) ([4]; pH 8.5, 200 ppm): <0.4%
concentration reducing HSV-I to below the detectable limit ([4]; pH conditions of 6.5-8.5): ≥ 50 ppm
number of infectious viruses ([5]; 25 ppm, contact 0 min): 5.4 ± 1.7 log CPU/mL
number of infectious viruses ([5]; 50 ppm, contact 0 min): 5.4 ± 1.7 log CPU/mL
number of infectious viruses ([5]; 100 ppm, contact 0 min): 5.4 ± 1.7 log CPU/mL
number of infectious viruses ([5]; 200 ppm, contact 0 min): 5.4 ± 1.7 log CPU/mL
number of infectious viruses ([5]; 200 ppm, contact 5 min): 3.7 ± 1.8 log CPU/mL
number of infectious viruses ([5]; 200 ppm, contact 10 min): 2.6 ± 1.8 log CPU/mL
number of infectious viruses ([5]; 400 ppm, contact 0 min): 5.4 ± 1.7 log CPU/mL
number of infectious viruses ([5]; 400 ppm, contact 1 min): <2.0 log CPU/mL
number of infectious viruses ([5]; 400 ppm, contact 5 min): <2.0 log CPU/mL
